Assay results as given in US20200163984A1, “USE OF ISOVALERYL SPIRAMYCIN I, II AND/OR III IN MANUFACTURING MEDICAMENT FOR TREATING AND/OR PREVENTING TUMOR, AND MEDICAMENT” (SHENYANG FUYANG PHARMACEUTICAL TECHNOLOGY CO., LTD., priority 2017, published 2020).
In brackets after ≈: the same amount, converted by molar mass.

Legend:
[1] = tested on: transplanted tumor of HL60 cells; assay: HL-60 transplanted tumor in nude mice; conditions: for Tumor Volume (mm3) (d30): d 30
Method: (§1) HL-60 cells in a logarithmic growth phase were taken and subjected to a trypan blue exclusion experiment showing that the cell viability was more than 95%, then the cells were subjected to trypsinization, centrifugation, and supernatant removal. Then cell concentration was adjusted to 1×10^7/ml with matrigel, then each nude mouse was inoculated subcutaneously with 0.2 ml of cells at its right armpit and recorded as the first day of inoculation. When the tumor grows to be greater than or equal to 100 mm^3, the mice were randomly divided into 11 groups with 6 mice in each group: isovaleryl spiramycin I groups with doses of 25, 50 and 100 mg/kg, isovaleryl spiramycin II groups with doses of 25, 50 and 100 mg/kg, and isovaleryl spiramycin III groups with doses of 25, 50 and 100 mg/kg. Each group was continuously administered intragastrically for 30 days with a dose of 20 ml/kg. The mice were sacrificed the next day after drug withdrawal and the indicators were tested. The long diameter and short diameter of the tumor, and the weight of each mouse were recorded every 3 days from drug administration to nude mouse sacrifice.
(§2) The body weight of the nude mice and the long diameter (a) and short diameter (b) of the transplanted tumor were measured every 3 days, and the tumor volume (v), relative tumor volume (RTV) and relative tumor proliferation rate (T/C) are calculated respectively according to the following formulas, wherein V=a×b^2/2; RTV=V/V0 (V0 is the tumor volume before administration, V is the tumor volume before sacrifice), and T/C (%)=treatment group RTV/model control group RTV×100%.
(§3) Each mouse was weighed and sacrificed. After the tumor was completely stripped off from the body of the mouse, the non-tumor tissues such as blood stains and fat were removed to weigh the tumor and calculate the tumor growth inhibition rate. The average tumor weight of each group of mice is used as an indicator of efficacy. Tumor growth inhibition rate (%)=(1−the average tumor weight of the treatment group/the average tumor weight of the model group)×100%.

[2] = tested on: transplanted tumor of human bladder cancer cell T-24; assay: T-24 transplanted tumor in nude mice; conditions: for Tumor Volume (mm3) (d30): d 30
Method: as §1, with “Then cell” for “HL-60 cells in a logarithmic growth phase were taken and subjected to a trypan blue exclusion experiment showing that the cell viability was more than 95%, then the cells were subjected to trypsinization, centrifugation, and supernatant removal. Then cell”, “and the body weight of” for “and the weight of”
as §2, §3

[3] = tested on: human large cell lung cancer cells H1299; conditions: H1299, MTT, 48 hours
Method: The purpose of the assay is to evaluate the in vitro cell proliferation inhibition or cytotoxic activity of a tested sample.
MCF-7, MDA-MB-231, HepG2, A549, H460, H1299, 786-0, 769-P, U251, A172, HeLa, PC3, PANC-1, TE-1, SGC7901, and HT-29 were adherent tumor cells. The adherent tumor cells in the logarithmic growth phase were selected and digested with trypsin, then were prepared into a 4 to 5×10^4/ml cell suspension by a medium containing 10% fetal bovine serum. And the cell suspension was inoculated in a 96-well culture plate, and each well was 100 μL. The 96-well culture plate was cultured at 37° C. and 5% CO2 for 24 hours. The experimental group was replaced with a new culture medium containing different concentrations of the sample to be tested, namely, isovaleryl spiramycin I, isovaleryl spiramycin II, or isovaleryl spiramycin III, while the control group was replaced with a culture medium containing the same volume of solvent. Each group was set up with 3 parallel wells that were cultured at 37° C. and 5% CO2 for 48 hours. After the supernatant was removed, the wells were washed carefully for 3 times with PBS. And 100 μL of freshly prepared culture medium containing 0.5 mg/ml MTT was added to each well for continuous incubation for 4 hours at 37° C. After the supernatant was removed carefully, 150 μL of DMSO was added to each well, and after the material was mixed for 10 minutes with a micro-oscillator, the optical density value was measured at 492 nm with a microplate reader.
The inhibition rate of the medicament on tumor cell growth is calculated according to the following formula:
Tumor cell growth inhibition rate (%)=[A492 (negative control)−A492 (dosing group)]/A492 (negative control)×100%
And the half-inhibitory concentration (IC50) of the sample is determined therefrom.

[4] = HL-60, high dose (100 mg/kg in method) i.g. 30 days
[5] = HL-60, low dose (25 mg/kg in method) i.g. 30 days
[6] = HL-60, medium dose (50 mg/kg in method) i.g. 30 days
[7] = T-24, high dose (100 mg/kg in method) i.g. 30 days
[8] = T-24, low dose (25 mg/kg in method) i.g. 30 days
[9] = T-24, medium dose (50 mg/kg in method) i.g. 30 days

CO[C@@H]1[C@@H](O[C@@H]2O[C@H](C)[C@@H](O[C@H]3C[C@@](C)(O)[C@@H](OC(=O)CC(C)C)[C@H](C)O3)[C@H](N(C)C)[C@H]2O)[C@@H](CC=O)C[C@@H](C)[C@@H](O[C@H]2CC[C@H](N(C)C)[C@@H](C)O2)/C=C/C=C/C[C@@H](C)OC(=O)C[C@H]1O [Isovaleryl spiramycin I, isovaleryl spiramycin I]
Relative Tumor Proliferation Rate (T/C) [1, 4]: 32.70% | tumor growth inhibition rate [1, 4]: 64.19% | Relative Tumor Proliferation Rate (T/C) [1, 5]: 84.96% | tumor growth inhibition rate [1, 5]: 11.57% | tumor volume and relative tumor volume compared with the model group ([1]; HL-60, low, medium and high doses, P<0.05): significantly lower | Relative Tumor Proliferation Rate (T/C) [1, 6]: 59.54% | tumor growth inhibition rate [1, 6]: 34.78% | Inhibition Rate (%) ([1]; dose 25 mg/kg): 11.57% | Relative Tumor Proliferation Rate (T/C) ([1]; dose 25 mg/kg): 84.96% | Relative Tumor Volume (RTV) ([1]; dose 25 mg/kg): 9.56 ± 2.41 | Tumor Weight ([1]; dose 25 mg/kg): 2.00 ± 0.34 g | Tumor Volume (mm3) (d 1) ([1]; dose 25 mg/kg): 182.56 ± 25.80 mm3 | Tumor Volume (mm3) (d30) ([1]; dose 25 mg/kg): 1702.01 ± 305.75 mm3 | Inhibition Rate (%) ([1]; dose 50 mg/kg): 34.78% | Relative Tumor Proliferation Rate (T/C) ([1]; dose 50 mg/kg): 59.54% | Relative Tumor Volume (RTV) ([1]; dose 50 mg/kg): 6.70 ± 2.58 | Tumor Weight ([1]; dose 50 mg/kg): 1.48 ± 0.38 g | Tumor Volume (mm3) (d 1) ([1]; dose 50 mg/kg): 189.04 ± 24.48 mm3 | Tumor Volume (mm3) (d30) ([1]; dose 50 mg/kg): 1230.70 ± 332.94 mm3 | Inhibition Rate (%) ([1]; dose 100 mg/kg): 64.19% | Relative Tumor Proliferation Rate (T/C) ([1]; dose 100 mg/kg): 32.70% | Relative Tumor Volume (RTV) ([1]; dose 100 mg/kg): 3.68 ± 2.51 | Tumor Weight ([1]; dose 100 mg/kg): 0.81 ± 0.42 g | Tumor Volume (mm3) (d 1) ([1]; dose 100 mg/kg): 183.82 ± 20.41 mm3 | Tumor Volume (mm3) (d30) ([1]; dose 100 mg/kg): 657.95 ± 411.53 mm3 | mouse weight compared with the model group ([1]; mouse, in vivo): no significant changes | Body Weight (g) (d1) ([1]; mouse, in vivo, 25 mg/kg): 20.75 ± 1.20 g | Body Weight (g) (d30) ([1]; mouse, in vivo, 25 mg/kg): 20.66 ± 1.08 g | Body Weight (g) (d1) ([1]; mouse, in vivo, 50 mg/kg): 20.4 ± 1.60 g | Body Weight (g) (d30) ([1]; mouse, in vivo, 50 mg/kg): 20.35 ± 1.20 g | Body Weight (g) (d1) ([1]; mouse, in vivo, 100 mg/kg): 20.63 ± 1.33 g | Body Weight (g) (d30) ([1]; mouse, in vivo, 100 mg/kg): 20.56 ± 1.77 g | Relative Tumor Proliferation Rate (T/C) [2, 7]: 33.95% | tumor growth inhibition rate [2, 7]: 65.84% | Relative Tumor Proliferation Rate (T/C) [2, 8]: 77.78% | tumor growth inhibition rate [2, 8]: 20.55% | tumor volume and relative tumor volume compared with the model group ([2]; T-24, low, medium and high doses, P<0.05): significantly lower | Relative Tumor Proliferation Rate (T/C) [2, 9]: 58.92% | tumor growth inhibition rate [2, 9]: 49.20% | Inhibition Rate (%) ([2]; dose 25 mg/kg): 20.55% | Relative Tumor Proliferation Rate (T/C) ([2]; dose 25 mg/kg): 77.78% | Relative Tumor Volume (RTV) ([2]; dose 25 mg/kg): 10.28 ± 1.12 | Tumor Weight ([2]; dose 25 mg/kg): 1.49 ± 0.23 g | Tumor Volume (mm3) (d 1) ([2]; dose 25 mg/kg): 139.84 ± 15.80 mm3 | Tumor Volume (mm3) (d30) ([2]; dose 25 mg/kg): 1428.71 ± 156.12 mm3 | Inhibition Rate (%) ([2]; dose 50 mg/kg): 49.20% | Relative Tumor Proliferation Rate (T/C) ([2]; dose 50 mg/kg): 58.92% | Relative Tumor Volume (RTV) ([2]; dose 50 mg/kg): 7.78 ± 1.27 | Tumor Weight ([2]; dose 50 mg/kg): 0.95 ± 0.38 g | Tumor Volume (mm3) (d 1) ([2]; dose 50 mg/kg): 131.81 ± 7.15 mm3 | Tumor Volume (mm3) (d30) ([2]; dose 50 mg/kg): 1025.16 ± 174.78 mm3 | Inhibition Rate (%) ([2]; dose 100 mg/kg): 65.84% | Relative Tumor Proliferation Rate (T/C) ([2]; dose 100 mg/kg): 33.95% | Relative Tumor Volume (RTV) ([2]; dose 100 mg/kg): 4.48 ± 0.75 | Tumor Weight ([2]; dose 100 mg/kg): 0.64 ± 0.18 g | Tumor Volume (mm3) (d 1) ([2]; dose 100 mg/kg): 134.21 ± 14.43 mm3 | Tumor Volume (mm3) (d30) ([2]; dose 100 mg/kg): 606.16 ± 136.06 mm3 | mouse weight compared with the model group ([2]; mouse, in vivo): no significant changes | Body Weight (g) (d1) ([2]; mouse, in vivo, 25 mg/kg): 19.51 ± 0.58 g | Body Weight (g) (d30) ([2]; mouse, in vivo, 25 mg/kg): 23.89 ± 1.18 g | Body Weight (g) (d1) ([2]; mouse, in vivo, 50 mg/kg): 19.60 ± 0.70 g | Body Weight (g) (d30) ([2]; mouse, in vivo, 50 mg/kg): 25.41 ± 0.92 g | Body Weight (g) (d1) ([2]; mouse, in vivo, 100 mg/kg): 19.49 ± 0.54 g | Body Weight (g) (d30) ([2]; mouse, in vivo, 100 mg/kg): 24.6 ± 2.08 g | IC50 [3]: 24.03 ± 2.07 µg/mL (≈ 25.9 µM)
